Assay results taken from patent publication US20160022875A1, “BONE SUBSTITUTES GRAFTED BY MIMETIC PEPTIDES OF HUMAN BMP 2 PROTEIN” (TEKNIMED, priority 2013, published 2016).

Test system: Runx2 gene
Experiment: Runx2 expression by RT-PCR as a function of density of peptide P1 grafted on a PET model support
Assay type: cell-based
Details: P1 grafted on PET at 0.4, 1.2 and 4.3 pmol/mm^2
Description: The peptide P1 was covalently grafted onto a model support, at three different densities. The support is made of polyethylene terephthalate (PET). The densities are 0.4 pmol/mm^2, 1.2 pmol/mm^2 and 4.3 pmol/mm^2. The expression level of the Runx2 factor by RT-PCR as a function of the density of the peptide P1 grafted at the surface of a model support was measured for these three densities (FIG. 13). The best expression level of the Runx2 gene is obtained for 1.2 pmol/mm^2 of peptide density, which corresponds to a maximum cell differentiation activity for the model support.
The activity obtained is also stable over time (after 1 week of culture): at 96 h of culture, a continuous increase in the expression of the Runx2 factor (approximately 42%) is observed.

## CKIPKASSVPTELSAISMLYL [P1]
  peptide density giving the best expression level of the Runx2 gene: 1.2 pmol/mm^2
